“Also recorded” adds a separate entry of the source.
How the values were obtained:
GDF-15 [1] = settings: cited from earlier work
GDF-15 [2] = experiment: GDF-15 levels in the cell supernatant (ELISA); format: cell-based, human; settings: 24 h after co-administration with RSL3, compared to RSL3-only
Method: GDF-15 is a biomarker that is elevated in the blood of patients with mitochondrial diseases and is used for the diagnosis of mitochondrial diseases and determination of therapeutic efficacy[26],[36]. […] As previously reported, GDF-15 levels were measured by an enzyme-linked immuno sorbent assay (ELISA) using the Quantikin Human GDF-15 ELISA Kit (R&D Systems, Minneapolis, MN, USA). Samples were obtained from anti-RSL3-induced cell death assays with candidate compounds (D31, D55, and D40), and cell supernatants 24 h after reagent addition were used for the assay. Measured values were calculated with reference to internal standards and compared to GDF-15 values.

[3] = system: LS patient-derived skin fibroblasts; experiment: Mitochondrial ATP production capacity (extracellular flux analyzer, OCR); format: cell-based, human; settings: 100 nM compound
Text: The extracellular flux analyzer Seahorse XFe96 (Agilent Technologies, Santa Clara, CA, USA) was used to evaluate the mitochondrial function. The extracellular flux analyzer measures the oxygen consumption rate (OCR) in the mitochondria during ATP synthesis and can also evaluate the intracellular mitochondrial function. The endpoints were the basal OCR, ATP-linked OCR, maximal OCR, and spare capacity, which are key indicators of the mitochondrial function in assays using living cells. Each indicator was calculated by continuously adding ATP synthase inhibitors (oligomycin, rotenone and antimycin A) and deconjugating agents (carbonyl cyanide-p-trifluoromethoxyphenylhydrazone [FCCP]) during the measurement (Fig. 6). […] The OCR was measured over time by adding oligomycin (2 μM concentration) 20 min after drug addition, FCCP (2 μM concentration) 50 min later, and rotenone and antimycin A (0.5 μM concentration) 80 min later.

[4] = cited from earlier work
[5] = system: LS patient-derived skin fibroblasts; settings: cited from earlier work
[6] = system: LS patient-derived skin fibroblasts; experiment: Anti-RSL3-induced cell death activity assay; format: cell-based; settings: Homo sapiens, Skin fibroblast, 24 h, read-out: Anti-RSL3-induced cell death effect EC50
Method: RSL3 is a glutathione peroxidase 4 (GPx4) inhibitor that specifically induces ferroptosis. Ferroptosis is an iron-dependent non-apoptotic type of cell death caused by lipid peroxidation.
After 24 h of incubation, the reagents were added to the RSL3 (−) derivative (−) and RSL3 ( +) derivative ( +) groups. […] The final concentration of RSL3 was 50–200 nM that would cause approximately 80–90% cell death after 24 h of incubation. The percentage of viable cells was measured 24 h after addition of each reagent.

[7] = system: LS patient-derived skin fibroblasts; experiment: Anti-BSO-induced cell death activity assay; settings: for EC50: viable cells 48 h after addition

SMILES | GDF-15 elevation in culture supernatant (GDF-15 [1]) | GDF-15 elevation in cell supernatant (GDF-15 [2]) | Enhancement of mitochondrial ATP production [3] | Concentrations in the brain versus plasma [4] | ATP production in LS patient-derived skin fibroblasts [5] | EC50 [6] | Anti-BSO cell death effect retained (same as apomorphine) ([7]; comparison of D29, D30, D31) | EC50 ([7]; Homo sapiens, Skin fibroblast, 48 h, read-out: Anti-BSO-induced cell death effect EC50, co-added with BSO at a concentration giving 10%-20% cell viability) | EC50 ([7]; read-out: Anti-BSO-induced cell death effect EC50, co-added with BSO at a concentration giving 10%-20% cell viability)
CN1CCc2cccc3c2[C@H]1Cc1ccc(O)c(O)c1-3 [Apo, (9R)-10-methyl-10-azatetracyclo[7.7.1.0²,⁷.0¹³,¹⁷]heptadeca-1(17),2,4,6,13,15-hexaene-3,4-diol] | inhibits GDF-15 elevation | significant decrease | No significant enhancement | up to three-fold higher | increase ATP production | – | – | – | –
COc1ccc2c(c1O)-c1cccc3c1[C@@H](C2)N(C)CC3 [D31, (9R)-4-methoxy-10-methyl-10-azatetracyclo[7.7.1.0²,⁷.0¹³,¹⁷]heptadeca-1(17),2,4,6,13,15-hexaen-3-ol] | – | suppressed GDF-15 elevation; also recorded: significant decrease | showed any ability to enhance mitochondrial ATP production; also recorded: No significant enhancement | – | – | 27 nM | retained its anti-BSO cell death effect; also recorded: the only compound with the same anti-BSO-induced cell death activity as apomorphine | – | –
CCCOc1ccc2c(c1O)-c1cccc3c1[C@@H](C2)N(C)CC3 [D40, (9R)-10-methyl-4-propoxy-10-azatetracyclo[7.7.1.0²,⁷.0¹³,¹⁷]heptadeca-1(17),2,4,6,13,15-hexaen-3-ol] | – | suppressed GDF-15 elevation; also recorded: significant decrease | showed any ability to enhance mitochondrial ATP production; also recorded: No significant enhancement | – | – | 231 nM | – | < 100 nM | 55 nM
